Measured values reported in patent publication US11020358B2, “Method for the anti-senescence of and/or rejuvenating stem cells” (GWO XI STEM CELL APPLIED TECHNOLOGY CO., LTD., priority 2014, dated 2021).

Legend:
[1] = tested on: ADSCs; experiment: Adipogenic differentiation assay (Oil Red O); assay type: cell-based, human; settings: H2O2 group ADSCs (100 μM 2 h), compared to untreated group
Method: Four portions of equal volume of the above culture medium containing the sub-cultured ADSCs were separately handled by adding thereinto H2O2 (purchased from Sigma-Aldrich) at a final concentration of 100 μM and reacting for 2 hours to induce senescence of the ADSCs, replacing the culture medium with a fresh culture medium, adding thereinto TC (trans-cinnamaldehyde, purchased from Sigma-Aldrich) at a final concentration of 0, 2, 4 or 6 μM and reacting for 6 hours, so as to obtain “H2O2 group (i.e., treated with H2O2 for 2 hours, but not treated with TC),” “H2O2+TC2 group (i.e., treated with H2O2 for 2 hours and then treated with 2 μM of TC for 6 hours),” “H2O2+TC4 group (i.e., treated with H2O2 for 2 hours and then treated with 4 μM of TC for 6 hours),” and “H2O2+TC6 group (i.e., treated with H2O2 for 2 hours and then treated with 6 μM of TC for 6 hours)” ADSCs. […]
After being photographed, the oil droplets were extracted from the cells in each sample with isopropanol containing 4% Nonidet P-40. The absorbance of the oil droplets at a wavelength of 510 nm (i.e., OD510) of each sample were measured, wherein the absorbance corresponds to the number of cells in orange-red color (i.e., cells present after adipogenic differentiation).

[2] = tested on: ADSCs; experiment: Osteogenic differentiation assay; assay type: cell-based, human; settings: H2O2 group ADSCs (100 μM 2 h), compared to untreated group
Method: Four portions of equal volume of the above culture medium containing the sub-cultured ADSCs were separately handled by adding thereinto H2O2 (purchased from Sigma-Aldrich) at a final concentration of 100 μM and reacting for 2 hours to induce senescence of the ADSCs, replacing the culture medium with a fresh culture medium, adding thereinto TC (trans-cinnamaldehyde, purchased from Sigma-Aldrich) at a final concentration of 0, 2, 4 or 6 μM and reacting for 6 hours, so as to obtain “H2O2 group (i.e., treated with H2O2 for 2 hours, but not treated with TC),” “H2O2+TC2 group (i.e., treated with H2O2 for 2 hours and then treated with 2 μM of TC for 6 hours),” “H2O2+TC4 group (i.e., treated with H2O2 for 2 hours and then treated with 4 μM of TC for 6 hours),” and “H2O2+TC6 group (i.e., treated with H2O2 for 2 hours and then treated with 6 μM of TC for 6 hours)” ADSCs. […] After being photographed, the absorbance at a wavelength of 450 nm (i.e., OD450) of each sample was measured to figure out the effect of H2O2 and/or TC on the osteogenic differentiation capacity of ADSCs.

OO [H2O2, reference compound]
cell number after adipogenic differentiation (OD510) [1]: significantly reduced | cell number after osteogenic differentiation (OD450) [2]: significantly reduced
